Data on ten compounds can be found in patent US20070082858A1, “Methods and compositions for the prevention of toxic side effects of aminoglycoside medications” (priority 2004, published 2007).

“Also recorded” adds a separate entry of the source.

The subject of data set [1] is MDCK cells. Description: GTTR uptake into MDCK cells under TRPV1 agonists/antagonists, cation channel blockers, cations and pH (30-60 seconds, 20° C., FATX fixation, confocal imaging). As to conditions: for hydrolyzed TR penetration into the cytoplasm (control for toxicity or increased permeability): highest doses shown: 5×10^−7 M RTX; for GTTR uptake stimulated by TRPV1 agonists/antagonists: AND, SB366791 or I-RTX. The text has this:
MDCK cells were used as a model system to test regulation of GTTR uptake by conditions known to produce or modify a cation current through the TRPV1 channel. Conditions tested were varying extracellular calcium concentrations, pH, specific agonists, specific antagonists, and the non-specific cation channel blocker Ruthenium Red. In addition, we pre-mixed PIP2 with GTTR to determine whether that anionic phospholipid, known to bind gentamicin, would alter GTTR uptake. All these assays were done at room temperature (20° C.), for 30 or 60 seconds, and using doses of GTTR of 5 to 10 μg/ml, which are far below the typical therapeutic level of <300 μg/ml. Buffers used for treatment were as described for each experiment. Cells were quickly washed to replace culture medium with treatment buffer, treated as indicated, washed again after treatment, fixed immediately with 4% formaldehyde and 0.5% Triton X-100 (FATX), and washed prior to imaging.
Methods: Cells were seeded into 8-well coverglass chambers at 3000 cells/well and grown for 5 days.
Cells were washed three times with the buffer to be used in the particular experiment, treated with GTTR and experimental variable for 30 or 60 seconds at 20° C., precluding endocytosis. Following treatment, cells were rinsed three times with buffer, then fixed and delipidated with 4% formaldehyde plus 0.5% Triton X-100 (FATX) for 45 minutes. Following fixation, cells were rinsed with PBS (Invitrogen, CA) for at least 4-6 times, or until foaming in the suction pipette ceased. In contrast to previous experiments, no FBS was present in the treatment media, allowing for more rapid uptake of the antibiotic-based GTTR.
MDCK cells were washed with Hank's buffered salt solution (HBSS; Invitrogen, CA), then placed into buffers of varying potassium concentrations. HBSS was mixed with equi-osmolar KCl/HBSS to produce the required K^+ concentrations. Cells were treated with 1 μg/mL GTTR for 1 minute, then washed and fixed as described above.
Cells were washed with PBS (Invitrogen, CA), then placed into buffers containing varying concentrations of calcium, obtained by mixing HBSS with equimolar CaCl2, each at pH 7.3. Cells were treated with 5 μg/mL of GTTR for 30 seconds, then washed and fixed as above.
Cells were washed with saline, then treated with 5 μg/mL of GTTR in saline buffers of varying pH for 30 seconds, then washed and fixed as above. Sodium hydroxide and hydrochloric acid were used to alter pH. These experiments were performed in three different saline buffers: (i) PBS (no calcium), (ii) a mixture of […] for a final calcium concentration of 0.32 mM, and (iii) a mixture of three parts PBS to one part HBSS for a final calcium concentration of 0.97 mM.
Cells were washed three times with Ca^++-free saline (0.9% NaCl), then treated with 5 μg/mL GTTR and one of the following for 30 seconds: TRPV1 agonists (resiniferatoxin [RTX]; or anandamide [AND]; Alexis Biochemicals, San Diego, Calif.); or antagonists (iodo-RTX, or SB 366791; Tocris, Ellisville, Mo.). Cells were then washed in saline and fixed as above.
Cells were washed three times with Ca^++-free 0.9% NaCl, then treated with 5 μg/mL GTTR and one of the following for 30 seconds: 100 μM Ruthenium Red, 100 μM Ruthenium Red plus one of the TRPV1 agonists or antagonists described above; or lanthanum (La^+++) at 0.5 or 5 mM.

For data set [2], the system named is bullfrog saccular hair cells. Description: GTTR uptake in bullfrog saccular explants with TRPV1 regulators. The data set is classed as cell-based. As for the experimental part: Bullfrogs (Rana catesbeiana) were anesthetized with 0.2% MS-222 and chilled before decapitation. The temporal bones were excised in cold oxygenated HEPES-buffered saline (HBS) containing 110 mM Na+; 2 mM K+; 4 mM Ca2+; 120 mM Cl−; 3 mM D-glucose, and 5 mM HEPES (pH=7.25; 220 mOsmols). Each saccule was isolated and the otolithic membrane removed by proteolytic digestion for 20 minutes in oxygenated 50 μg/ml subtilopeptidase BPN (Sigma) at room temperature. Saccular explants were then incubated in Wolf-Quimby culture medium (containing 1 mM Ca2+; Life Technologies) supplemented with 100 μg/ml ciprofloxacin in a 5% CO2 environment at 25° C. (Steyger et al. 1997; Steyger et al. 1998). Gentamicin-treated explants were incubated in the above culture media, supplemented with 300 μg/ml GT/GTTR.

Data set [3] concerns inner ear explants. Description: GTTR uptake in explants of bullfrog and murine inner ears (Example 9). The data set is classed as cell-based. The text has this: Deafness and nephrotoxicity are serious consequences of aminoglycoside (AG) therapy. As discussed above, in cultured kidney cells, the non-endocytotic component of fluorescently-labeled gentamicin (GTTR) uptake was regulated by TRPV1 channel agonists and antagonists (pH, Ca^++, RTX). This example discusses the influence of these modulators on GTTR uptake in explants of bullfrog and murine inner ears.

For data set [4], the system named is murine cochlear explants. Description: GTTR uptake in murine cochlear explants with RTX. The format is cell-based. The conditions noted are these: level of OHC nuclei.
For data set [5] the following is noted: cited from earlier work.

For `CCCCC/C=C\C/C=C\C/C=C\C/C=C\CCCC(=O)NCCO` [AND, anandamide], the GTTR uptake result is “little, or no, increase over controls; also recorded: little or no increase over controls” in data set [1] (AND 10^−4 M, calcium-free saline pH 7.3); “increased, although not to the level seen with RTX” in data set [1] (AND 10^−5 M, calcium-free saline pH 7.3 (Example 1: greater extent than 10^−6 M)); “increased, although not to the level seen with RTX” in data set [1] (AND 10^−6 M, calcium-free saline pH 7.3).

As for `[Gd+3]` [Gd^+++, Gadolinium], in data set [1] (0.5, 5, or 50 mM Gd^+++ in HBSS pH 7.3, 30 seconds), the GTTR uptake entry was “serially decreased”.

Regarding `C=C(C)[C@]12C[C@@H](C)[C@@]34O[C@](Cc5ccccc5)(O[C@@H]1[C@@H]3C=C(COC(=O)Cc1cc(I)c(O)c(OC)c1)C[C@]1(O)C(=O)C(C)=C[C@@H]41)O2` [I-RTX], the GTTR uptake result in data set [1] (10^−5 M I-RTX with 0.16 or 2.0 mM added calcium, pH 7.0) is “still caused increased GTTR uptake”; in data set [1] (10^−5 M I-RTX, saline without added calcium, pH 7.0, 1 μg/mL GTTR 30 seconds), “increased GTTR uptake”. Also, in data set [1] (I-RTX 10^−5 M, calcium-free saline pH 7.3), the GTTR fluorescence entry is on record as “well over the upper limit of the available 0 to 255 gray scale”. The “hydrolyzed TR penetration into the cytoplasm (control for toxicity or increased permeability)” value in data set [1] (10^−5 M I-RTX) is on record as “Neither I-RTX or RTX induced TR penetration into the cytoplasm”. In addition, the “GTTR uptake, effect compared with SB366791” value in data set [1] (iodo-RTX dose series 10^−7 to 10^−5 M, calcium-free saline pH 7.3, listed as 1-RTX) is listed as “dramatic; also recorded: more dramatic”. For the same compound, in data set [2] (iodo-RTX), the “GTTR uptake in saccular hair cells” value is listed as “significantly enhanced by iodo-RTX”.

Take `[Cl-].[K+]` [K^+, KCl]: the GTTR uptake result in data set [1] (K^+ increased from 10 mM to 140 mM vs 5.8 mM, HBSS pH 7.3, 1 minute) is “clear and considerable decrease in GTTR uptake”; in data set [3] (potassium depolarization of explants) it was “decreased GTTR uptake”.

As to `N.N.N.N.N.N.N.N.N.N.N.N.N.N.[Cl-].[Cl-].[Cl-].[Cl-].[Cl-].[Cl-].[O-2].[O-2].[Ru+3].[Ru+3].[Ru+4]` [RR, Ruthenium Red], the GTTR uptake result in data set [1] (10 mM RR alone (Example 1)) and in data set [1] (10^−5 M RR alone (Example 11)) was “took up less GTTR than controls” each time. Besides, the “GTTR uptake stimulated by TRPV1 agonists/antagonists” value in data set [1] (10 mM RR plus RTX, AND effect not completely blocked (Example 1)) was “blocked GTTR increases stimulated by RTX, AND, SB366791, and I-RTX”; in data set [1] (10^−5 M RR plus RTX, AND effect not completely blocked (Example 11)) it was “blocked GTTR increases stimulated by RTX, AND, SB366791, and I-RTX”. The “GTTR uptake in saccular hair cells” value in data set [2] (Ruthenium Red) and in data set [2] (Ruthenium Red in explants co-treated with iodo-RTX) was “significantly reduced by Ruthenium Red” each time.

As for `C=C(C)[C@]12C[C@@H](C)[C@@]34O[C@](Cc5ccccc5)(O[C@@H]1[C@@H]3C=C(COC(=O)Cc1ccc(O)c(OC)c1)C[C@]1(O)C(=O)C(C)=C[C@@H]41)O2` [RTX, resiniferatoxin], the results for the “GTTR uptake in the organ of Corti” value in data set [4] (RTX plus Ca++) and in data set [4] (RTX) were “reduced further by RTX plus Ca++” and “reduced by RTX”, respectively. Besides, the GTTR uptake result is recorded as “reduced GTTR uptake compared to controls at the same calcium levels” in data set [1] (5×10^−9 M RTX with 0.16 or 2.0 mM added calcium, pH 7.0); “increased GTTR uptake” in data set [1] (5×10^−9 M RTX, saline without added calcium, pH 7.0, 1 μg/mL GTTR 30 seconds); “little or no change over control” in data set [1] (RTX 5×10^−7 M, calcium-free saline pH 7.3, 5 μg/mL GTTR 30 seconds); “increased, but to a lesser extent” in data set [1] (RTX 5×10^−8 M, calcium-free saline pH 7.3, 5 μg/mL GTTR 30 seconds); “significantly increased” in data set [1] (RTX 5×10^−9 M, calcium-free saline pH 7.3, 5 μg/mL GTTR 30 seconds); “little or no change over control” in data set [1] (RTX 10^−6 M, calcium-free saline pH 7.3). In addition, the GTTR uptake result in data set [1] (RTX 10^−7 M, calcium-free saline pH 7.3) was “increased to a lesser extent”; in data set [1] (RTX 10^−8 M, calcium-free saline pH 7.3), “significantly increased”; in data set [1] (RTX with calcium concentrations as low as 0.08 mM), “inhibited GTTR uptake”; in data set [1] (combination of 2 mM Ca^++ and 5×10^−9 RTX), “greatly reduced GTTR uptake”; in data set [3] (RTX at 0.16 mM Ca^++) it was “enhanced GTTR uptake”; in data set [3] (RTX at physiological Ca^++ levels), “reduced GTTR uptake”. The “hydrolyzed TR penetration into the cytoplasm (control for toxicity or increased permeability)” value in data set [1] (10^−5 M I-RTX) is listed as “Neither I-RTX or RTX induced TR penetration into the cytoplasm”. For the same compound, the “GTTR uptake in saccular hair cells” value was “reduced by co-treatment with RTX, and Ca++” in data set [2] (RTX and Ca++ co-treatment); “significantly reduced by RTX” in data set [2] (RTX co-administered with GTTR).

As for `COc1cccc(NC(=O)/C=C/c2ccc(Cl)cc2)c1` [SB366791], the GTTR uptake result in data set [1] (SB366791 10^−7 M to 10^−5 M, calcium-free saline pH 7.3) is “increased GTTR uptake significantly; also recorded: serially increased GTTR uptake”.

Take `CC(C)[C@@H]1NC(=O)[C@H](C)OC(=O)[C@@H](C(C)C)NC(=O)[C@@H](C(C)C)OC(=O)[C@H](C(C)C)NC(=O)[C@H](C)OC(=O)[C@@H](C(C)C)NC(=O)[C@@H](C(C)C)OC(=O)[C@H](C(C)C)NC(=O)[C@H](C)OC(=O)[C@@H](C(C)C)NC(=O)[C@@H](C(C)C)OC1=O` [Valinomycin]: in data set [1] (10 μg/mL valinomycin in HBSS pH 7.3, 5 μg/mL GTTR 30 seconds), the GTTR uptake entry is “decreased the uptake of GTTR compared to control cells”.

`[Ca+2].[Cl-].[Cl-]` [calcium, calcium chloride]: the GTTR uptake entry in data set [1] (0.16 mM Ca^++ vs no calcium added or 2.0 mM, pH 7.0, 1 μg/mL GTTR) is “higher”; in data set [1] (0.16 mM calcium vs no calcium added, saline pH 7.3), “increased”; in data set [1] (calcium concentrations above 0.16 mM, saline pH 7.3) it was “GTTR uptake decreased”; in data set [1] (calcium levels higher than 1.8 mM), “almost completely blocking uptake”; in data set [1] (physiological calcium levels (1.8 mM)), “inhibitory”; in data set [3] (0.16 mM Ca^++ compared to 0.0 mM Ca^++), “greater GTTR uptake”.

As to `[H]/N=C(/N)N[C@H]1[C@H](O)[C@@H](O)[C@H](O[C@@H]2O[C@@H](C)[C@](O)(C=O)[C@H]2O[C@@H]2O[C@@H](CO)[C@H](O)[C@@H](O)[C@@H]2NC)[C@@H](N/C(N)=N\[H])[C@@H]1O` [streptomycin], in data set [5] (1 gram per day), the “incidence of vestibular impairment” value is on record as 25%. Besides, the “patients displaying some vestibular impairment” value in data set [5] (2 grams daily for 60 to 120 days) is roughly 75%.
